Test results taken from ChEMBL document CHEMBL3808337, “Rapid Discovery of Pyrido[3,4-d]pyrimidine Inhibitors of Monopolar Spindle Kinase 1 (MPS1) Using a Structure-Based Hybridization Approach” (J Med Chem, 2016).

Legend:
[1] = target: Cytochrome P450 2C9 (Homo sapiens, UniProt P11712); test: Inhibition of CYP2C9 (unknown origin); format: ADME
[2] = target: T1, Cytochrome P450 1A2 (Homo sapiens, UniProt P05177); test: Inhibition of CYP1A2 (unknown origin); format: ADME
T1 sequence (P05177 whole entry): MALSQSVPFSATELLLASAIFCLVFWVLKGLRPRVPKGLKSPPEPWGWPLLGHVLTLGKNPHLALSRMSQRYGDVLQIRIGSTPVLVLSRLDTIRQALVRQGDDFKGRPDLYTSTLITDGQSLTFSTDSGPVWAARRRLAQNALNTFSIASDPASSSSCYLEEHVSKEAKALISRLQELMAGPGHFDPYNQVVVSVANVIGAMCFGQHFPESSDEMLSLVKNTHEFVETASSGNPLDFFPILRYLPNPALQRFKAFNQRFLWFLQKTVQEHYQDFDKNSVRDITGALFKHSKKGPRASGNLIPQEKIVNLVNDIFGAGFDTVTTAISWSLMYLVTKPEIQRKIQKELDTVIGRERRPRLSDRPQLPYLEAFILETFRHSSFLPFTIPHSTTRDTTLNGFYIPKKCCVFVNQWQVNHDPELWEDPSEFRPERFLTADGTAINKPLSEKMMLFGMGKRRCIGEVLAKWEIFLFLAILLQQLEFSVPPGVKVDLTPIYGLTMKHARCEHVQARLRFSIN

[3] = target: Cytochrome P450 2C19 (Homo sapiens, UniProt P33261); test: Inhibition of CYP2C19 (unknown origin); format: ADME
[4] = target: Cytochrome P450 3A4 (Homo sapiens, UniProt P08684)
[5] = target: Cytochrome P450 2D6 (Homo sapiens, UniProt P10635)
[6] = Drug metabolism in CD1 mouse liver microsomes at 10 uM after 30 mins by LCMS analysis; format: ADME; conditions: read-out: Drug metabolism
[7] = target: CDK2/Cyclin A2 (Homo sapiens, UniProt P24941)
[8] = Antiproliferative activity against human HCT116 cells assessed as cell viability after 72 hrs by MTT assay; format: functional; conditions: HCT-116, 72 h

Chain of Cytochrome P450 2D6 (P10635 whole entry): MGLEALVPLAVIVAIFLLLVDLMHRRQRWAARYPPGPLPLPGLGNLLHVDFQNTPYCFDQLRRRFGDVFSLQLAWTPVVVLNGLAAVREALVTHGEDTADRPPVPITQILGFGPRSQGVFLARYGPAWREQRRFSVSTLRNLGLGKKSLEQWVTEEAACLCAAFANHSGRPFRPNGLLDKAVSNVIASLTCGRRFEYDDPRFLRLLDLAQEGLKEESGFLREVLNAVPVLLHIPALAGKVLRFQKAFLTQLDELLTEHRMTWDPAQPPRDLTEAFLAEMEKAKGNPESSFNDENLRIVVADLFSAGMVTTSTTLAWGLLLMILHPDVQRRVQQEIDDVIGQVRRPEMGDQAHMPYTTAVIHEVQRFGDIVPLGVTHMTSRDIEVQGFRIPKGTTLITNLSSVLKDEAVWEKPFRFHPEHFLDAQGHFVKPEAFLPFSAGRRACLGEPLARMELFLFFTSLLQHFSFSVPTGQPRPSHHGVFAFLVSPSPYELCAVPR
Chain of Cytochrome P450 3A4 (P08684 whole entry): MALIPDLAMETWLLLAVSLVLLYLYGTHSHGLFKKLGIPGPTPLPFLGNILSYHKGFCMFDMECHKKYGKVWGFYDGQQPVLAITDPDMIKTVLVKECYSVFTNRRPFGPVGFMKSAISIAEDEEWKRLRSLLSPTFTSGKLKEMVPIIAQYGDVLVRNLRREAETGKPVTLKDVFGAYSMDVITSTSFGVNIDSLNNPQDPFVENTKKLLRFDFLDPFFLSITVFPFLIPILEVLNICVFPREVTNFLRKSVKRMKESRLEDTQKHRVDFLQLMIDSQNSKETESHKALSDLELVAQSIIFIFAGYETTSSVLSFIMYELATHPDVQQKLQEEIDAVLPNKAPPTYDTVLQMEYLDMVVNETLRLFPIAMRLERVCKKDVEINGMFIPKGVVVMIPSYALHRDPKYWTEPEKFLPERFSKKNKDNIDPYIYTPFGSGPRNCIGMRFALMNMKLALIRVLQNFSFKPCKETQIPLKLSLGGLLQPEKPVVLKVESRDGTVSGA
Chain of Cytochrome P450 2C9 (P11712 whole entry): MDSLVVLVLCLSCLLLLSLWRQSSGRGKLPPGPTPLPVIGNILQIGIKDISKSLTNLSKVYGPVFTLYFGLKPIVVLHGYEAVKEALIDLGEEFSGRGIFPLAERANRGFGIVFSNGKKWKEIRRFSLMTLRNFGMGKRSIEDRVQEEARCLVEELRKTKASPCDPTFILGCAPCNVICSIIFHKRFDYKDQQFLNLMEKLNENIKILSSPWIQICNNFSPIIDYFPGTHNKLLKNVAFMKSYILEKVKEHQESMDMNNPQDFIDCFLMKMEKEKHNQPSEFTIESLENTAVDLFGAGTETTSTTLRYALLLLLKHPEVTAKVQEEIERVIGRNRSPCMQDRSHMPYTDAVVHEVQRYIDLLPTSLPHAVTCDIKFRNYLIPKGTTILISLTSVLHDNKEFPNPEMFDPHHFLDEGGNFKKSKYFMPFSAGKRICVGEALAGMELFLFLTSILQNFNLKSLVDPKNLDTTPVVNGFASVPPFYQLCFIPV
Chain of Cytochrome P450 2C19 (P33261 whole entry): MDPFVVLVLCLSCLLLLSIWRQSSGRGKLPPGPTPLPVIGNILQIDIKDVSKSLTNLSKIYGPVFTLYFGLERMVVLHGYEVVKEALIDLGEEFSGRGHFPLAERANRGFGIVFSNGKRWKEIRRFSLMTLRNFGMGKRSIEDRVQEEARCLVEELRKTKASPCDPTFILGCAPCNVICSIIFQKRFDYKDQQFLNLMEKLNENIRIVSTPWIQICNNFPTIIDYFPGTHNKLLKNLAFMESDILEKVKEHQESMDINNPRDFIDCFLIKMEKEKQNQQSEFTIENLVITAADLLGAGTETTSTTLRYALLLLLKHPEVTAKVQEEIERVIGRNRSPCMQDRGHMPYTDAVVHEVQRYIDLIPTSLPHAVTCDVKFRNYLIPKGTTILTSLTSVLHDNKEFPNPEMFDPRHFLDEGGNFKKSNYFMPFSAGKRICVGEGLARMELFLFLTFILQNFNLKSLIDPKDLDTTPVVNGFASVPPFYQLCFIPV

SMILES | metabolised at 0.5 h, 10 µM [6] | GI50 [8] | other results
Cn1cc(-c2cc3cnc(Nc4ccc(-c5cncn5C)cc4Cl)cc3n2C(=O)OC(C)(C)C)cn1 | – | – | IC50 [1]: < 1 µM; IC50 [2]: < 1 µM; IC50 [3]: < 1 µM; IC50 [4]: < 1 µM; IC50 [5]: < 1 µM
COc1cc(-c2cnn(C)c2)ccc1Nc1ncc2ccnc(NC3CCCCC3)c2n1 | 22% | 0.12 µM | IC50 [7]: 0.19 µM; Ki [7]: 0.1 µM
COc1cc(-c2cnn(C)c2)ccc1Nc1ncc2ccnc(C3CC3)c2n1 | 51% | – | –
Cc1cc(-c2cnn(C)c2)ccc1Nc1ncc2ccnc(-c3cnn(C)c3)c2n1 | 63% | – | –
COc1cc(-c2cnn(C)c2)ccc1Nc1ncc2ccnc(N[C@H](C)C(C)(C)C)c2n1 | 25% | 0.22 µM | –
COc1cc(-c2cnn(C)c2)ccc1Nc1ncc2ccnc(N3CCCC3)c2n1 | 64% | 0.47 µM | –
COc1cc(-c2cnn(C)c2)ccc1Nc1ncc2ccnc(NCC(C)(C)C)c2n1 | 31% | 0.34 µM | –

Continued, in another order:

metabolised at 0.5 h, 10 µM [6] | SMILES | GI50 [8] | other results
45% | CCOc1cc(-c2cnn(C)c2)ccc1Nc1ncc2ccnc(-c3cnn(C)c3)c2n1 | – | IC50 [7]: > 45 µM
40% | COc1cc(-c2cnn(C)c2)ccc1Nc1ncc2ccnc(-c3ccccc3)c2n1 | – | –
